Measurements as given in patent publication EP4745137A1 (Gluetacs Therapeutics (Shanghai) Co., Ltd., priority 2023, dated 2025).

How the values were obtained:
Format in all cases: cell-based
Settings in all cases: 24 hours of compound treatment, 50 nM and 500 nM tested (concentration behind the class not stated)
GSPT1 = target: T1, GSPT1 (Homo sapiens, UniProt P15170+Q96SW2); experiment: Western-blot assay of substrate protein degradation in hPBMCs, GSPT1
T1 construct: endogenous in cells; host or cells: hPBMCs (Milecell Biotechnologies)

IKZF1 = target: T2, IKZF1 (Homo sapiens, UniProt Q13422+Q96SW2); experiment: Western-blot assay of substrate protein degradation in hPBMCs, IKZF1
T2 construct: endogenous in cells; host or cells: hPBMCs (Milecell Biotechnologies)
T2 sequence (Q13422 whole entry): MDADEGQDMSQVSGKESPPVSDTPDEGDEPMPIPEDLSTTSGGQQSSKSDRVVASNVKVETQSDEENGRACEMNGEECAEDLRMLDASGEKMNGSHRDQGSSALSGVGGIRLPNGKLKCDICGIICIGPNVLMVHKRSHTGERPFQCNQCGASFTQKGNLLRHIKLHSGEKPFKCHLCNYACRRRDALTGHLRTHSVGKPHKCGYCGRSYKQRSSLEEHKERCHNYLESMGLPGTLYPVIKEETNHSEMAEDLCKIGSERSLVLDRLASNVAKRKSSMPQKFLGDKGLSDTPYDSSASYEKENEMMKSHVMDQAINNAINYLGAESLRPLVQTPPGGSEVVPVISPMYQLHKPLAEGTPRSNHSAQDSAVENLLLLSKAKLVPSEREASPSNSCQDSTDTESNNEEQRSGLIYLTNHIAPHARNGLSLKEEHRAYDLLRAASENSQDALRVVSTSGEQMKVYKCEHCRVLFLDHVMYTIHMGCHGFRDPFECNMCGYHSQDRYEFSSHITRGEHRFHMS
T2 sequence (Q96SW2 whole entry): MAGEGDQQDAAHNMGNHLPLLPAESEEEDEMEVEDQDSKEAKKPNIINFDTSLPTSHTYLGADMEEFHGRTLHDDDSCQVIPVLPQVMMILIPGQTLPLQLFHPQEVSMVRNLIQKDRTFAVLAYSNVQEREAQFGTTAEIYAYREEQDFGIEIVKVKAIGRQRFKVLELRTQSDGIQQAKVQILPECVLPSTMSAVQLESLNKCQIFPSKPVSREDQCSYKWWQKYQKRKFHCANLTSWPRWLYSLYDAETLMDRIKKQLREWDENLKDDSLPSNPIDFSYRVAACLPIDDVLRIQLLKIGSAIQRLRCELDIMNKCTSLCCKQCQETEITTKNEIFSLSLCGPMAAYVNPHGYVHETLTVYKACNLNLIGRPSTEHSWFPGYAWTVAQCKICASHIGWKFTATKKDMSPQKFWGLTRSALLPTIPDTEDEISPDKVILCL
T2 sequence (Q16531 whole entry partner): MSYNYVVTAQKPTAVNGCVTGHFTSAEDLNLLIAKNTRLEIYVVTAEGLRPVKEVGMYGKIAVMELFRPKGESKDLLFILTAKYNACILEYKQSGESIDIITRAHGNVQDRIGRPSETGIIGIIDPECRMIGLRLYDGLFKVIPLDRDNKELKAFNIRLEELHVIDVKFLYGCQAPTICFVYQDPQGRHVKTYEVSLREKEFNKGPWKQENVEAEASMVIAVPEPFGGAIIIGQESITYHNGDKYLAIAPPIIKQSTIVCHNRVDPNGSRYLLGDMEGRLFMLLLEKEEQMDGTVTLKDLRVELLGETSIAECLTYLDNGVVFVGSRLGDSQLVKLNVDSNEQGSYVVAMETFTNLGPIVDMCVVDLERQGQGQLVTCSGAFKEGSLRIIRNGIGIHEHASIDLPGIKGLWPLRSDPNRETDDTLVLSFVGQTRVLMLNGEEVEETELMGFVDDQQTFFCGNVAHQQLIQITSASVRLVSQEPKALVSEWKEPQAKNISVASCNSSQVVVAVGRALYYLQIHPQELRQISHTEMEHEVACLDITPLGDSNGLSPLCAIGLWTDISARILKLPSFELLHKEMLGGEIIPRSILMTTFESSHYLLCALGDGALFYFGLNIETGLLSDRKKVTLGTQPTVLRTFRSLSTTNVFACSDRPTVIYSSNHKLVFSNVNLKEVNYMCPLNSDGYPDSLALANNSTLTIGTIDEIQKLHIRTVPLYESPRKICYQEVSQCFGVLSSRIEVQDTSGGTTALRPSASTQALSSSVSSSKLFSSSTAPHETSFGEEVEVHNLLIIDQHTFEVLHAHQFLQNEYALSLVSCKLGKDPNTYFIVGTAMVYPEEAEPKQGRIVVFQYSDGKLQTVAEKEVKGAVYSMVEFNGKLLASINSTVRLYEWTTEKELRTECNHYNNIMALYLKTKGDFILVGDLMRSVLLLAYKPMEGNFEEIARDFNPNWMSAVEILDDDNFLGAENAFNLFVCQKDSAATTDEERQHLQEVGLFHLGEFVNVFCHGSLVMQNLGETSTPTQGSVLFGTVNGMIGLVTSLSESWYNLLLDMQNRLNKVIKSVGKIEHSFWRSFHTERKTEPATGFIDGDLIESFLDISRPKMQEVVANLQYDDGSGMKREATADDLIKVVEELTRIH

IKZF3 = target: T3, IKZF3 (Homo sapiens, UniProt Q96SW2+Q9UKT9); experiment: Western-blot assay of substrate protein degradation in hPBMCs, IKZF3
T3 construct: endogenous in cells; host or cells: hPBMCs (Milecell Biotechnologies)
T3 sequence (Q9UKT9 whole entry): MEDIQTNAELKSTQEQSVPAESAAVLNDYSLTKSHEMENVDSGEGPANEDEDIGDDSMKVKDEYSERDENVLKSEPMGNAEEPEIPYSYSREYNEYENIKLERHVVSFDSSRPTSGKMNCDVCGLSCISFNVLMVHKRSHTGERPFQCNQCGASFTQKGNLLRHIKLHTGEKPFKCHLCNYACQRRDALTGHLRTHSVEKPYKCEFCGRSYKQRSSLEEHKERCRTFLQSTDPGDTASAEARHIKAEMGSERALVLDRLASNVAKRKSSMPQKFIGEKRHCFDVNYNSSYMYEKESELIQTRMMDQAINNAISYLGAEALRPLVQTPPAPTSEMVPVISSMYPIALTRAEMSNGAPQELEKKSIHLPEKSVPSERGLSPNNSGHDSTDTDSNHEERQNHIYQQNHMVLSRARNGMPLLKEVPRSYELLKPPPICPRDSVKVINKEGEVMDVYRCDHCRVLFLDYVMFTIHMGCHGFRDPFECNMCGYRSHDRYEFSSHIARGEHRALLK
T3 sequence (Q96SW2 whole entry): as the sequence (Q96SW2 whole entry) above
T3 sequence (Q16531 whole entry partner): as the sequence (Q16531 whole entry partner) above

CK1α = target: T4, CK1α (Homo sapiens, UniProt P48729+Q96SW2); experiment: Western-blot assay of substrate protein degradation in hPBMCs, CK1α
T4 construct: endogenous in cells; host or cells: hPBMCs (Milecell Biotechnologies)
T4 sequence (P48729 whole entry): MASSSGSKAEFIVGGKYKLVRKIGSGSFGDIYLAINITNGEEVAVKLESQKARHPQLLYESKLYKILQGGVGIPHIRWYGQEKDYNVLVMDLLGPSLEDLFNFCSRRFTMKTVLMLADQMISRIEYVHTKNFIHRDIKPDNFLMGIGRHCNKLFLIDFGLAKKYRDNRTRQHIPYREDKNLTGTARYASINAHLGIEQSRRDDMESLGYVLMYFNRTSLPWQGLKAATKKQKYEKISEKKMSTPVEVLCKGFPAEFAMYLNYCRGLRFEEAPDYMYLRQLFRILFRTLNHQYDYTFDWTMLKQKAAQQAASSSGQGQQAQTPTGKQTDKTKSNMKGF
T4 sequence (Q96SW2 whole entry): as the sequence (Q96SW2 whole entry) above
T4 sequence (Q16531 whole entry partner): as the sequence (Q16531 whole entry partner) above

WEE1 = target: T5, WEE1 (Homo sapiens, UniProt P30291+Q96SW2); experiment: Western-blot assay of substrate protein degradation in hPBMCs, WEE1
T5 construct: endogenous in cells; host or cells: hPBMCs (Milecell Biotechnologies)
T5 sequence (P30291 whole entry): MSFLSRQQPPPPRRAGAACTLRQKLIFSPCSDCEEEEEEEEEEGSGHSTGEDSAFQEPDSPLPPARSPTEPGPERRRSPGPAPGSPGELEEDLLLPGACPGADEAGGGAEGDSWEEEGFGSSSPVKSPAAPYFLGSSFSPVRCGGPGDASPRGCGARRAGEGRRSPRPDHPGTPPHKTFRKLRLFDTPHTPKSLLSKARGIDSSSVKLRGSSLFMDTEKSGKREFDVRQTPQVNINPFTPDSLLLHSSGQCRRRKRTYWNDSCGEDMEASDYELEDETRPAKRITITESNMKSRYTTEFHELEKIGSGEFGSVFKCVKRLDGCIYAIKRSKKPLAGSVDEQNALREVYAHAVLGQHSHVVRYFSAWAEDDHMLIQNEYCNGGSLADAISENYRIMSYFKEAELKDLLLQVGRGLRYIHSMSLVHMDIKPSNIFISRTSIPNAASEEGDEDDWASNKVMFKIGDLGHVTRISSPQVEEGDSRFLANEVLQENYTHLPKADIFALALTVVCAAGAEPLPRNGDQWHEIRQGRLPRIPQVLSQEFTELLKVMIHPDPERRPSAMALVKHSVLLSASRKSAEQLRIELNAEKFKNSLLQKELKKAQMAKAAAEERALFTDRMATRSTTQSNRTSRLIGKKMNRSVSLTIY
T5 sequence (Q96SW2 whole entry): as the sequence (Q96SW2 whole entry) above
T5 sequence (Q16531 whole entry partner): as the sequence (Q16531 whole entry partner) above

IKZF2 = target: T6, IKZF2 (Homo sapiens, UniProt Q96SW2+Q9UKS7); experiment: Western-blot assay of substrate protein degradation in hPBMCs, IKZF2
T6 construct: endogenous in cells; host or cells: hPBMCs (Milecell Biotechnologies)
T6 sequence (Q9UKS7 whole entry): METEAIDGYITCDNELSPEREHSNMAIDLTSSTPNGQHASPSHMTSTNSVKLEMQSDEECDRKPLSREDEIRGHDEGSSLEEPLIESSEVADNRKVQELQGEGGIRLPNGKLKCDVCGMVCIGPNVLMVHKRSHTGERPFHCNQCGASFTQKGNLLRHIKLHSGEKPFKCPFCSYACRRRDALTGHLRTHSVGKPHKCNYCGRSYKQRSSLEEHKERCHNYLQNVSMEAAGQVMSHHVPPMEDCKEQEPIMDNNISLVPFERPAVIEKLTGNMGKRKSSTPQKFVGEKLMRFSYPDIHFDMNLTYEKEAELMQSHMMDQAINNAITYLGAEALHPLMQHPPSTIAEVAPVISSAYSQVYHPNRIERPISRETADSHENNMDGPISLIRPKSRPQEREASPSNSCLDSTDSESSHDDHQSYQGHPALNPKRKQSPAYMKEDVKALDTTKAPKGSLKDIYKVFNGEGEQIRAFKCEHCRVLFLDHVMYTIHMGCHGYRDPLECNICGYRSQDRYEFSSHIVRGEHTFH
T6 sequence (Q96SW2 whole entry): as the sequence (Q96SW2 whole entry) above
T6 sequence (Q16531 whole entry partner): as the sequence (Q16531 whole entry partner) above

SMILES	GSPT1 substrate protein remaining % (GSPT1)	IKZF 1 substrate protein remaining % (IKZF1)	IKZF3 substrate protein remaining % (IKZF3)	CK1a substrate protein remaining % (CK1α)	Weel substrate protein remaining % (WEE1)	IKZF2 substrate protein remaining % (IKZF2)
Cc1cc2c(C3CCN(Cc4ccc5c(c4)C(=O)N(C4CCC(=O)NC4=O)C5=O)CC3)ncnc2s1 (stereo not drawn) [GT-06592, 2-(2,6-dioxopiperidin-3-yl)-5-((4-(6-methylthieno[2,3-d]pyrimidin-4-yl)piperidin-1-yl)methyl)isoindoline-1,3-dione]	A (0% ≤ substrate protein remaining % ≤ 80%)	A (0% ≤ substrate protein remaining % ≤ 80%)	A (0% ≤ substrate protein remaining % ≤ 80%)	B (80%< substrate protein remaining %≤ 100%)	A (0% ≤ substrate protein remaining % ≤ 80%)	A (0% ≤ substrate protein remaining % ≤ 80%)
O=C1CCC(N2C(=O)c3ccc(CN4CCC(c5ncnc6sc(-c7ccccc7)cc56)CC4)cc3C2=O)C(=O)N1 (stereo not drawn) [GT-06594, 2-(2,6-dioxopiperidin-3-yl)-5-((4-(6-phenylthieno[2,3-d]pyrimidin-4-yl)piperidin-1-yl)methyl)isoindoline-1,3-dione]	A (0% ≤ substrate protein remaining % ≤ 80%)	A (0% ≤ substrate protein remaining % ≤ 80%)	A (0% ≤ substrate protein remaining % ≤ 80%)	B (80%< substrate protein remaining %≤ 100%)	A (0% ≤ substrate protein remaining % ≤ 80%)	A (0% ≤ substrate protein remaining % ≤ 80%)
O=C1CCC(N2C(=O)c3ccc(CN4CCN(c5c(Cl)cncc5Br)CC4)cc3C2=O)C(=O)N1 (stereo not drawn) [GT-06599, 5-((4-(3-bromo-5-chloropyridin-4-yl)piperazin-1-yl)methyl)-2-(2,6-dioxopiperidin-3-yl)isoindoline-1,3-dione]	A (0% ≤ substrate protein remaining % ≤ 80%)	B (80%< substrate protein remaining %≤ 100%)	B (80%< substrate protein remaining %≤ 100%)	B (80%< substrate protein remaining %≤ 100%)	B (80%< substrate protein remaining %≤ 100%)	B (80%< substrate protein remaining %≤ 100%)
O=C1CCC(N2C(=O)c3ccc(CN4CCN(c5c(F)cncc5Cl)CC4)cc3C2=O)C(=O)N1 (stereo not drawn) [GT-06600, 5-((4-(3-chloro-5-fluoropyridin-4-yl)piperazin-1-yl)methyl)-2-(2,6-dioxopiperidin-3-yl)isoindoline-1,3-dione]	A (0% ≤ substrate protein remaining % ≤ 80%)	B (80%< substrate protein remaining %≤ 100%)	B (80%< substrate protein remaining %≤ 100%)	B (80%< substrate protein remaining %≤ 100%)	B (80%< substrate protein remaining %≤ 100%)	B (80%< substrate protein remaining %≤ 100%)
O=C1CCC(N2C(=O)c3ccc(CN4CCC(c5nccc(Cl)c5Cl)CC4)cc3C2=O)C(=O)N1 (stereo not drawn) [GT-06607, 5-((4-(3,4-dichloropyridin-2-yl)piperidin-1-yl)methyl)-2-(2,6-dioxopiperidin-3-yl)isoindoline-1,3-dione]	A (0% ≤ substrate protein remaining % ≤ 80%)	B (80%< substrate protein remaining %≤ 100%)	B (80%< substrate protein remaining %≤ 100%)	B (80%< substrate protein remaining %≤ 100%)	B (80%< substrate protein remaining %≤ 100%)	B (80%< substrate protein remaining %≤ 100%)
O=C1CCC(N2C(=O)c3ccc(CN4CCC(c5ccnc(F)c5F)CC4)cc3C2=O)C(=O)N1 (stereo not drawn) [GT-06613, 5-((4-(2,3-difluoropyridin-4-yl)piperidin-1-yl)methyl)-2-(2,6-dioxopiperidin-3-yl)isoindoline-1,3-dione]	A (0% ≤ substrate protein remaining % ≤ 80%)	B (80%< substrate protein remaining %≤ 100%)	B (80%< substrate protein remaining %≤ 100%)	B (80%< substrate protein remaining %≤ 100%)	B (80%< substrate protein remaining %≤ 100%)	B (80%< substrate protein remaining %≤ 100%)
O=C1CCC(N2C(=O)c3ccc(CN4CCC(c5ccnc(Cl)c5Cl)CC4)cc3C2=O)C(=O)N1 (stereo not drawn) [GT-06615, 5-((4-(2,3-dichloropyridin-4-yl)piperidin-1-yl)methyl)-2-(2,6-dioxopiperidin-3-yl)isoindoline-1,3-dione]	A (0% ≤ substrate protein remaining % ≤ 80%)	B (80%< substrate protein remaining %≤ 100%)	A (0% ≤ substrate protein remaining % ≤ 80%)	A (0% ≤ substrate protein remaining % ≤ 80%)	A (0% ≤ substrate protein remaining % ≤ 80%)	B (80%< substrate protein remaining %≤ 100%)
O=C1CCC(N2C(=O)c3ccc(CN4CCN(c5ccnc(Cl)c5)CC4)cc3C2=O)C(=O)N1 (stereo not drawn) [GT-06619, 5-((4-(2-chloropyridin-4-yl)piperazin-1-yl)methyl)-2-(2,6-dioxopiperidin-3-yl)isoindoline-1,3-dione]	A (0% ≤ substrate protein remaining % ≤ 80%)	B (80%< substrate protein remaining %≤ 100%)	A (0% ≤ substrate protein remaining % ≤ 80%)	B (80%< substrate protein remaining %≤ 100%)	B (80%< substrate protein remaining %≤ 100%)	B (80%< substrate protein remaining %≤ 100%)
O=C1CCC(N2C(=O)c3ccc(CN4CCC(c5noc6ccccc56)CC4)cc3C2=O)C(=O)N1 (stereo not drawn) [GT-06627, 5-((4-(benzo[d]isoxazol-3-yl)piperidin-1-yl)methyl)-2-(2,6-dioxopiperidin-3-yl)isoindoline-1,3-dione]	A (0% ≤ substrate protein remaining % ≤ 80%)	B (80%< substrate protein remaining %≤ 100%)	B (80%< substrate protein remaining %≤ 100%)	B (80%< substrate protein remaining %≤ 100%)	B (80%< substrate protein remaining %≤ 100%)	B (80%< substrate protein remaining %≤ 100%)
O=C1CCC(N2C(=O)c3ccc(CN4CCC(c5ccon5)CC4)cc3C2=O)C(=O)N1 (stereo not drawn) [GT-06628, 2-(2,6-dioxopiperidin-3-yl)-5-((4-(isoxazol-3-yl)piperidin-1-yl)methyl)isoindoline-1,3-dione]	A (0% ≤ substrate protein remaining % ≤ 80%)	B (80%< substrate protein remaining %≤ 100%)	B (80%< substrate protein remaining %≤ 100%)	B (80%< substrate protein remaining %≤ 100%)	B (80%< substrate protein remaining %≤ 100%)	B (80%< substrate protein remaining %≤ 100%)
O=C1CCC(N2C(=O)c3ccc(CN4CCN(c5noc6cc(F)ccc56)CC4)cc3C2=O)C(=O)N1 (stereo not drawn) [GT-06629, 2-(2,6-dioxopiperidin-3-yl)-5-((4-(6-fluorobenzo[d]isoxazol-3-yl)piperazin-1-yl)methyl)isoindoline-1,3-dione]	A (0% ≤ substrate protein remaining % ≤ 80%)	B (80%< substrate protein remaining %≤ 100%)	B (80%< substrate protein remaining %≤ 100%)	A (0% ≤ substrate protein remaining % ≤ 80%)	A (0% ≤ substrate protein remaining % ≤ 80%)	A (0% ≤ substrate protein remaining % ≤ 80%)
O=C1CCC(N2C(=O)c3ccc(CN4CCN(c5noc6ccncc56)CC4)cc3C2=O)C(=O)N1 (stereo not drawn) [GT-06630, 2-(2,6-dioxopiperidin-3-yl)-5-((4-(isoxazolo[4,5-c]pyridin-3-yl)piperazin-1-yl)methyl)isoindoline-1,3-dione]	A (0% ≤ substrate protein remaining % ≤ 80%)	B (80%< substrate protein remaining %≤ 100%)	B (80%< substrate protein remaining %≤ 100%)	A (0% ≤ substrate protein remaining % ≤ 80%)	A (0% ≤ substrate protein remaining % ≤ 80%)	A (0% ≤ substrate protein remaining % ≤ 80%)
